Experimental data from ChEMBL document CHEMBL4823282, “Novel Broad-Spectrum Antimicrobial Peptide Derived from Anoplin and Its Activity on Bacterial Pneumonia in Mice” (J Med Chem, 2021).
In brackets after ≈: the same amount, converted by molar mass. Where a SMILES comes first, the peptide text is derived from it.

Key:
Acinetobacter baumannii = assay: Antibacterial activity against Acinetobacter baumannii ATCC 19606 incubated for 18 hrs by CLSI based broth dilution method; assay type: functional; conditions: ATCC 19606 = CIP 70.34 = JCM 6841
Escherichia coli = assay: Antibacterial activity against Escherichia coli ATCC 25922 incubated for 18 hrs by CLSI based broth dilution method; assay type: functional
Enterococcus faecalis = assay: Antibacterial activity against Enterococcus faecalis ATCC 29212 incubated for 18 hrs by CLSI based broth dilution method; assay type: functional
[1] = Selectivity ratio of MHC10 for BALB/C mouse erythrocytes to MIC for gram-negative bacteria; assay type: toxicity
[2] = system: Staphylococcus epidermidis; assay: Antibacterial activity against Staphylococcus epidermidis ATCC 12228 incubated for 18 hrs by CLSI based broth dilution method; assay type: functional
Pseudomonas aeruginosa [3] = assay: Antibacterial activity against Pseudomonas aeruginosa ATCC 27853 incubated for 18 hrs by CLSI based broth dilution method; assay type: functional
[4] = Cytotoxicity against human glomerular mesangial cells incubated for 12 hrs by MTT assay; assay type: cell-based; conditions: Glomerular mesangial cell
Bacteria [5] = assay: Antibacterial activity against bacteria incubated for 18 hrs by CLSI based broth dilution method; assay type: functional
[6] = Selectivity ratio of MHC10 for BALB/C mouse erythrocytes to MIC for gram positive bacteria; assay type: toxicity
Bacillus subtilis = assay: Antibacterial activity against Bacillus subtilis ATCC 23857 incubated for 18 hrs by CLSI based broth dilution method; assay type: functional
Fungi = assay: Antibacterial activity against fungi incubated for 18 hrs by CLSI based broth dilution method; assay type: functional
Erythrocyte = assay: Hemolytic activity in BALB/C mouse erythrocytes incubated for 1 hr by absorbance method; assay type: ADME, cell-based
[7] = Selectivity ratio of MHC10 for BALB/C mouse erythrocytes to MIC for fungi; assay type: toxicity
Bacteria [8] = assay: Antibacterial activity against Gram-positive bacteria incubated for 18 hrs by CLSI based broth dilution method; assay type: functional
Bacteria [9] = assay: Antibacterial activity against Gram-negative bacteria incubated for 18 hrs by CLSI based broth dilution method; assay type: functional
Staphylococcus aureus = assay: Antibacterial activity against Staphylococcus aureus ATCC 25923 incubated for 18 hrs by CLSI based broth dilution method; assay type: functional
[10] = Selectivity ratio of MHC10 for BALB/C mouse erythrocytes to MIC for bacteria; assay type: toxicity
Klebsiella pneumoniae = assay: Antibacterial activity against Klebsiella pneumoniae ATCC 700603 incubated for 18 hrs by CLSI based broth dilution method; assay type: functional
Pseudomonas aeruginosa [11] = assay: Synergistic antibacterial activity against Pseudomonas aeruginosa ATCC 27853 at 2 times MIC incubated for 18 to 24 hrs in presence of 2 times MIC of rifampicin by broth microdilution assay based checkerboard assay; assay type: functional; conditions: time 18-24 hrs
Pseudomonas aeruginosa [12] = assay: Synergistic antibacterial activity against Pseudomonas aeruginosa ATCC 27853 at 2 times MIC incubated for 18 to 24 hrs in presence of 2 times MIC of polymyxin B by broth microdilution assay based checkerboard assay; assay type: functional; conditions: time 18-24 hrs

Compound	MIC (Acinetobacter baumannii)	MIC (Escherichia coli)	MIC (Enterococcus faecalis)	selectivity ratio [1]	MIC [2]	MIC (Pseudomonas aeruginosa [3])	IC50 [4]	MIC (Bacteria [5])	selectivity ratio at 18 h [6]	MIC (Bacillus subtilis)	MIC (Fungi)	MHC10 (Erythrocyte)	selectivity ratio [7]	MIC (Bacteria [8])	MIC (Bacteria [9])	MIC (Staphylococcus aureus)	selectivity ratio [10]	MIC (Klebsiella pneumoniae)	FIC (Pseudomonas aeruginosa [11])	FIC (Pseudomonas aeruginosa [12])
CC(C)C[C@H](NC(=O)[C@H](CC(C)C)NC(=O)[C@@H](NC(=O)[C@H](CCCCN)NC(=O)[C@H](Cc1ccccc1)NC(=O)[C@H](CCCNC(=N)N)NC(=O)[C@H](CCCCN)NC(=O)[C@H](CC(C)C)NC(=O)[C@H](CC(C)C)NC(=O)CN)[C@@H](C)O)C(N)=O (H-GLLKRFKTLL-NH2)	256 µM (≈ 304 µg/mL)	64 µM (≈ 76 µg/mL)	256 µM (≈ 304 µg/mL)	6.73	16 µM (≈ 19 µg/mL)	64 µM (≈ 76 µg/mL)	≥ 512 µM	69.8 µM (≈ 82.9 µg/mL)	8	32 µM (≈ 38 µg/mL)	69.8 µM (≈ 82.9 µg/mL)	>= 512 uM	7.34	64 µM (≈ 76 µg/mL)	76.1 µM (≈ 90.4 µg/mL)	128 µM (≈ 152 µg/mL)	7.34	128 µM (≈ 152 µg/mL)	–	–
CC[C@H](C)[C@H](NC(=O)[C@H](CCCNC(=N)N)NC(=O)[C@H](CCCCN)NC(=O)[C@H](Cc1ccccc1)NC(=O)[C@H](Cc1c[nH]c2ccccc12)NC(=O)[C@@H](N)CCCCN)C(=O)N[C@@H](CCCCN)C(=O)N[C@H](C(=O)N[C@@H](Cc1ccccc1)C(=O)N[C@@H](Cc1c[nH]c2ccccc12)C(N)=O)[C@@H](C)O (H-KWFKRIKTFW-NH2)	128 µM (≈ 184 µg/mL)	16 µM (≈ 23 µg/mL)	64 µM (≈ 92.1 µg/mL)	19	128 µM (≈ 184 µg/mL)	16 µM (≈ 23 µg/mL)	80.2 µM	32 µM (≈ 46 µg/mL)	13.4	16 µM (≈ 23 µg/mL)	32 µM (≈ 46 µg/mL)	>= 512 uM	16	38.1 µM (≈ 54.8 µg/mL)	–	16 µM (≈ 23 µg/mL)	16	32 µM (≈ 46 µg/mL)	0.3125	0.25
CC(C)C[C@H](NC(=O)[C@H](Cc1ccccc1)NC(=O)CN)C(=O)N[C@@H](CCCCN)C(=O)N[C@@H](CCCNC(=N)N)C(=O)N[C@@H](Cc1ccccc1)C(=O)N[C@@H](CCCCN)C(=O)N[C@H](C(=O)N[C@@H](CC(C)C)C(=O)N[C@@H](Cc1ccccc1)C(N)=O)[C@@H](C)O (H-GFLKRFKTLF-NH2)	128 µM (≈ 161 µg/mL)	64 µM (≈ 80.4 µg/mL)	128 µM (≈ 161 µg/mL)	7.14	8 µM (≈ 10 µg/mL)	64 µM (≈ 80.4 µg/mL)	209 µM	49.4 µM (≈ 62 µg/mL)	8.48	64 µM (≈ 80.4 µg/mL)	49.4 µM (≈ 62 µg/mL)	384 µM	7.78	45.3 µM (≈ 56.9 µg/mL)	53.8 µM (≈ 67.6 µg/mL)	64 µM (≈ 80.4 µg/mL)	7.78	128 µM (≈ 161 µg/mL)	–	–
CC(C)C[C@H](NC(=O)[C@H](CC(C)C)NC(=O)[C@@H](NC(=O)[C@H](CCCCN)NC(=O)[C@H](C)NC(=O)[C@H](CCCNC(=N)N)NC(=O)[C@H](CCCCN)NC(=O)[C@H](C)NC(=O)[C@H](CC(C)C)NC(=O)CN)[C@@H](C)O)C(N)=O (H-GLAKRAKTLL-NH2)	≥ 512 µM	≥ 512 µM	≥ 512 µM	1	≥ 512 µM	≥ 512 µM	≥ 512 µM	≥ 512 µM	1	≥ 512 µM	≥ 512 µM	>= 512 uM	1	≥ 512 µM	≥ 512 µM	≥ 512 µM	1	≥ 512 µM	–	–
CC(C)C[C@H](NC(=O)[C@H](C)NC(=O)[C@@H](NC(=O)[C@H](CCCCN)NC(=O)[C@H](C)NC(=O)[C@H](CCCNC(=N)N)NC(=O)[C@H](CCCCN)NC(=O)[C@H](C)NC(=O)[C@H](C)NC(=O)CN)[C@@H](C)O)C(N)=O (H-GAAKRAKTAL-NH2)	≥ 512 µM	≥ 512 µM	≥ 512 µM	1	≥ 512 µM	≥ 512 µM	≥ 512 µM	≥ 512 µM	1	≥ 512 µM	≥ 512 µM	>= 512 uM	1	≥ 512 µM	≥ 512 µM	≥ 512 µM	1	≥ 512 µM	–	–
CC(C)C[C@H](NC(=O)CN)C(=O)N[C@@H](CC(C)C)C(=O)N[C@@H](CCCCN)C(=O)N[C@@H](CCCNC(=N)N)C(=O)N[C@@H](CC(C)C)C(=O)N[C@@H](CCCCN)C(=O)N[C@H](C(=O)N[C@@H](CC(C)C)C(=O)N[C@@H](C)C(N)=O)[C@@H](C)O (H-GLLKRLKTLA-NH2)	≥ 512 µM	256 µM (≈ 285 µg/mL)	≥ 512 µM	2.38	64 µM (≈ 71.1 µg/mL)	256 µM (≈ 285 µg/mL)	≥ 512 µM	166 µM (≈ 185 µg/mL)	4	32 µM (≈ 35.6 µg/mL)	166 µM (≈ 185 µg/mL)	>= 512 uM	3.08	128 µM (≈ 142 µg/mL)	215 µM (≈ 239 µg/mL)	256 µM (≈ 285 µg/mL)	3.08	256 µM (≈ 285 µg/mL)	–	–
CC[C@H](C)[C@H](NC(=O)CN)C(=O)N[C@@H](CCCNC(=N)N)C(=O)N[C@@H](Cc1c[nH]c2ccccc12)C(=O)N[C@@H](CCCCN)C(=O)N[C@@H](Cc1ccccc1)C(=O)N[C@@H](Cc1c[nH]c2ccccc12)C(=O)N[C@@H](CCCCN)C(=O)N[C@@H](Cc1ccccc1)C(=O)N[C@H](C(N)=O)[C@@H](C)O (H-GIRWKFWKFT-NH2)	128 µM (≈ 175 µg/mL)	32 µM (≈ 43.8 µg/mL)	128 µM (≈ 175 µg/mL)	11.3	128 µM (≈ 175 µg/mL)	32 µM (≈ 43.8 µg/mL)	≥ 512 µM	58.7 µM (≈ 80.3 µg/mL)	6.73	64 µM (≈ 87.5 µg/mL)	58.7 µM (≈ 80.3 µg/mL)	>= 512 uM	8.72	76.1 µM (≈ 104 µg/mL)	45.3 µM (≈ 62 µg/mL)	32 µM (≈ 43.8 µg/mL)	8.72	64 µM (≈ 87.5 µg/mL)	–	–
C[C@H](NC(=O)[C@H](C)NC(=O)[C@@H](NC(=O)[C@H](CCCCN)NC(=O)[C@H](C)NC(=O)[C@H](CCCNC(=N)N)NC(=O)[C@H](CCCCN)NC(=O)[C@H](C)NC(=O)[C@H](C)NC(=O)CN)[C@@H](C)O)C(N)=O (H-GAAKRAKTAA-NH2)	≥ 512 µM	≥ 512 µM	≥ 512 µM	1	≥ 512 µM	≥ 512 µM	≥ 512 µM	≥ 512 µM	1	≥ 512 µM	≥ 512 µM	>= 512 uM	1	≥ 512 µM	≥ 512 µM	≥ 512 µM	1	≥ 512 µM	–	–
